Data: paper PMC3192784, “A Potent Inhibitor of SIK2, 3, 3′, 7-Trihydroxy-4′-Methoxyflavon (4′-O-Methylfisetin), Promotes Melanogenesis in B16F10 Melanoma Cells” (PLoS ONE, 2011)

How the values were obtained:
[1] = target: T1, SIK2 (salt inducible kinase 2) (Mus musculus, UniProt Q8CFH6); test: in vitro kinase ELISA with GST-TORC2 peptide substrate; type: biochemical
T1 construct: GST-SIK2 expressed in COS-7 cells

[2] = target: T1, SIK2 (salt inducible kinase 2); test: as above; type: biochemical; remark: listed apart in the source

T1 sequence (Q8CFH6 whole entry): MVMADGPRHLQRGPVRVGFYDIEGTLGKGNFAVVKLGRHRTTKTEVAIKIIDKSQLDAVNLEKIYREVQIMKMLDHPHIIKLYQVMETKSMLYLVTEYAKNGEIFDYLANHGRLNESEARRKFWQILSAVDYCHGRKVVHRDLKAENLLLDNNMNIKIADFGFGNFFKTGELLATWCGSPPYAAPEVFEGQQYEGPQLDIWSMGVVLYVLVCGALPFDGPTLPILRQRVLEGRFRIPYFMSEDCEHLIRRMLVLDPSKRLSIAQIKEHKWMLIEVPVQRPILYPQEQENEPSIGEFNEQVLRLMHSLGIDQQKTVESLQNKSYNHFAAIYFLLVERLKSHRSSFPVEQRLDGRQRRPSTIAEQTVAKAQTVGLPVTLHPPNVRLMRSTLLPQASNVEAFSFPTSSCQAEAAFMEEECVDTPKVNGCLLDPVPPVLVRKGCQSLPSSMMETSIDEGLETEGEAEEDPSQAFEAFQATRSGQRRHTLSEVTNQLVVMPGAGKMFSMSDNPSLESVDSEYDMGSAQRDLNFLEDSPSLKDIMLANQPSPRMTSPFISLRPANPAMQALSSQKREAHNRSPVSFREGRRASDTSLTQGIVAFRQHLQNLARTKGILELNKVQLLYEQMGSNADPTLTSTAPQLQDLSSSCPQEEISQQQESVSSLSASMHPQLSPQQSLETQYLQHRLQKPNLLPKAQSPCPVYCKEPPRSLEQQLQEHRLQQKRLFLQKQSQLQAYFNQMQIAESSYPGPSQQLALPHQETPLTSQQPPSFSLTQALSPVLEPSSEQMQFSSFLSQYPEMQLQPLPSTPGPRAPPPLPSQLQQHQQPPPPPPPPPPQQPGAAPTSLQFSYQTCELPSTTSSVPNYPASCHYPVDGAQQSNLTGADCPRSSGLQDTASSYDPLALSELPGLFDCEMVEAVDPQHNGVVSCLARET

Row | in vitro kinase ELISA with GST-TORC2 peptide substrate [2] | Structure (SMILES) | IC50 [1] [nM]
1 |  | O=c1c(O)c(-c2ccc(O)c(O)c2)oc2cc(O)cc(O)c12 [quercetin] | 500
2 | 50 to 500 nM | COc1ccc(-c2cc(=O)c3c(O)cc(O)cc3o2)cc1O [diosmetin] | 
3 | ~ 50 nM | O=c1c(O)c(-c2ccc(O)c(O)c2)oc2cc(O)ccc12 [fisetin] | 

Row | Structure (SMILES) | in vitro kinase ELISA with GST-TORC2 peptide substrate [2] | IC50 [1] [nM]
4 | O=c1cc(-c2ccc(O)c(O)c2)oc2cc(O)cc(O)c12 [luteolin] | efficiency of SIK2-kinase inhibition in vitro by their non-methylated cognates (fisetin > luteolin > quercetin) | 
